Experiments:
SGLT-2 = molecular target: T1, SGLT-2 (Homo sapiens, UniProt P31639); test: [14C]-AMG absorption in stable SGLT2 expressing Flp-in CHO cells (SGLT-2 activity screening assay); assay type: cell-based; details: 14C-AMG uptake, 37° C. 1 h, 1% DMSO
T1 sequence (P31639 1-672): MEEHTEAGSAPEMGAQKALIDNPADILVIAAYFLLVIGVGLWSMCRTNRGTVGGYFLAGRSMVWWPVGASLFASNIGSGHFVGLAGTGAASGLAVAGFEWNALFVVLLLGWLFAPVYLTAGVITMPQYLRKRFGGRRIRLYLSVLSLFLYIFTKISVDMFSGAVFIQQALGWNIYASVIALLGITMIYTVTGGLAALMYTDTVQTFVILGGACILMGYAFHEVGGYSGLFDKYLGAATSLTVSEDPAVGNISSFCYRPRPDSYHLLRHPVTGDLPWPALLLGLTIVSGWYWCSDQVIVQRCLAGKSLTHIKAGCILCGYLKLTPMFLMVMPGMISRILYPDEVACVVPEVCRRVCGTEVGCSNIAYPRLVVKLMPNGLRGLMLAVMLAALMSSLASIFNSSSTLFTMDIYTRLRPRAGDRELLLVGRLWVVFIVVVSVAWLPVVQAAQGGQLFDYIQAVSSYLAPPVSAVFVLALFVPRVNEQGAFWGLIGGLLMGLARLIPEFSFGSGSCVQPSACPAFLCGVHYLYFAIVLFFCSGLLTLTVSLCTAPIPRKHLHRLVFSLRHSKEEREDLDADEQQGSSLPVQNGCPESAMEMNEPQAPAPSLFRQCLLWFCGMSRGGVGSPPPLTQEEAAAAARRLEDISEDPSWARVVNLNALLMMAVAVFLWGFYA
Source text: (§1) Example 1: [^14C]-AMG Absorption in Stable SGLT1 and SGLT2 Expressing Flp-in CHO Cells (SGLT-1 and SGLT-2 Activity Screening Assay)
(§2) SGLT-1 and SGLT-2 cDNA clones were purchased from OriGene. After sequencing verification, the expression vectors were constructed based on pcDNA5/FRT using conventional molecular biology method. The expression vector was transfected into Flp-in CHO cells using Lipofectamin 2000. The transfected cells were subject hygromycin selection. The single clones of cells were selected by serial dilutions 4-5 weeks after transfection. The expression of SGLT-1 ? SGLT-2 were confirmed by RT-PCR and functional assay and cell line with strong signal was selected for subsequent study.
(§3) Culture of stable SGLT-1 and SGLT-2 expressing Flp-in CHO cell line: the culture media contain F12 medium (Invitrogen), 500 μg/ml hygromycin (Calbiochem) and 10% FBS (Invitrogen). Upon 80% confluency, the cells in the T75 flask were washed three times with PBS (Invitrogen), and 5 mL of Trpsin-EDTA solution (Invitrogen) was then added. The flask was gently rotated so that all the cells were submerged in the digestion solution. After the cells detach, 10 mL of culture medium was added and single cell suspension was prepared by pipetting up and down. The cell concentration was adjusted to 3×10^5/mL, 100 μL/well was added onto clear bottom 96-well plate (Corning).
(§4) The cells were ready for absorption assay once they attached after overnight culture. 12 h after cell plating, the cells were washed once with 150 μL/well absorption solution KRH-NMG (120 mM NMG, 4.7 mM KCl, 1.2 mM MgCl2, 2.2 mM CaCl2, 10 mM HEPES, pH 7.4 1 mM Tris). The solution was then removed from the well. 2.5 μCi/mL ^14C labeled AMG (PerkinElmer) Buffer KRH-Na+ (120 mM NaCl, 4.7 mM KCl, 1.2 mM MgCl2, 2.2 mM CaCl2, 10 mM HEPES, pH 7.4 1 mM Tris) was added at […] after washing with Buffer KRH-Na+ and KRH-NMG. The corresponding compound I was immediately added at 5 μL/well, ensuring the concentration of Dimethyl Sulfoxide was 1% (v/v). The plate was subsequently incubated at 37° C. for 1 h, after which 150 μL of ice cold wash buffer (120 mM NaCl, 4.7 mM KCl, 1.2 mM MgCl2, 2.2 mM CaCl2, 10 mM HEPES, 0.5 mM phlorizin, pH 7.4 1 mM Tris) was immediately added to terminate the reaction. Each well was washed three times with wash buffer and finally the solution was removed. Caution was taken to avoid cell detachment during the procedure. 20 μL/well of Lysis Buffer (0.1 mM NaOH) was added, the plate was vortexed at 900 rpm for 5 min. 80 μL/well of scintillation solution Microsint40 was added, and vortexed at 900 rpm for 5 min. The radioactivity was assayed using MicroBeta Trilux (PerkinElmer). The data was analyzed and IC50 of the compounds was calculated using XL-fit software.

SGLT-1 = molecular target: T2, SGLT-1 (Homo sapiens, UniProt P13866); test: [14C]-AMG absorption in stable SGLT1 expressing Flp-in CHO cells (SGLT-1 activity screening assay); assay type: cell-based; details: 14C-AMG uptake, 37° C. 1 h, 1% DMSO
T2 sequence (P13866 1-664): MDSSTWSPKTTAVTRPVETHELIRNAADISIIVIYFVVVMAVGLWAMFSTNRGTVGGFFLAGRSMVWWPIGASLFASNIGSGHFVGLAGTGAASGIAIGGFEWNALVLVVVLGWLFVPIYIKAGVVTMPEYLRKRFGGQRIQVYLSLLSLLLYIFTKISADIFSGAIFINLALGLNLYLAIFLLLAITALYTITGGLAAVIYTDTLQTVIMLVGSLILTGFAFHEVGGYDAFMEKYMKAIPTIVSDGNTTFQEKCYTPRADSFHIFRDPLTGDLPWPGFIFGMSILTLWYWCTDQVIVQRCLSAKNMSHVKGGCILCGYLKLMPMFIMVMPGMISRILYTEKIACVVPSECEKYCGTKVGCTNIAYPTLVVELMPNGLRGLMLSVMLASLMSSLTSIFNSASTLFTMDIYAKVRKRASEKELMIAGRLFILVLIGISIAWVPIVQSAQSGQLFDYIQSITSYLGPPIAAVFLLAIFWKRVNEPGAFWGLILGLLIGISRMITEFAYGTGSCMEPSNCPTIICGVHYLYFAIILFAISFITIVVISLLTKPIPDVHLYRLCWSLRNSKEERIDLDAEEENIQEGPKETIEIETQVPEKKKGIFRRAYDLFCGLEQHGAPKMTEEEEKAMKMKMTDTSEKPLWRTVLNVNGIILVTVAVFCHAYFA
Source text: as §1, §2, §3, §4

IC50 (SGLT-2) | IC50 (SGLT-1) | Compound
3.9 nM | 1310 nM | CC1(COc2ccc(Cc3cc([C@@H]4O[C@H](CO)[C@@H](O)[C@H](O)[C@H]4O)ccc3Cl)cc2)OCc2ccccc21 (single isomer, unassigned) [Compound I-116]
15 nM | 2540 nM | OC[C@H]1O[C@@H](c2ccc(F)c(Cc3ccc(OCc4cc5ccccc5o4)cc3)c2)[C@H](O)[C@@H](O)[C@@H]1O [Compound I-2, (2S,3R,4R,5S,6R)-2-(3-(4-(benzofuran-2-ylmethoxy)benzyl)-4-fluorophenyl)-6-(hydroxymethyl)tetrahydro-2H-pyran-3,4,5-triol]
5.6 nM | 320 nM | Cc1ccc([C@@H]2O[C@H](CO)[C@@H](O)[C@H](O)[C@H]2O)cc1Cc1ccc(OCc2cc3ccccc3o2)cc1 [Compound I-3, (2S,3R,4R,5S,6R)-2-(3-(4-(benzofuran-2-ylmethoxy)benzyl)-4-methylphenyl)-6-(hydroxymethyl)tetrahydro-2H-pyran-3,4,5-triol]
18 nM | 1510 nM | COc1ccc([C@@H]2O[C@H](CO)[C@@H](O)[C@H](O)[C@H]2O)cc1Cc1ccc(OCc2cc3ccccc3o2)cc1 [Compound I-5, (2S,3R,4R,5S,6R)-2-(3-(4-(benzofuran-2-ylmethoxy)benzyl)-4-methoxyphenyl)-6-(hydroxymethyl)tetrahydro-2H-pyran-3,4,5-triol]
36 nM |  | OC[C@H]1O[C@@H](c2cccc(Cc3ccc(OCc4cc5ccccc5o4)cc3)c2)[C@H](O)[C@@H](O)[C@@H]1O [Compound I-6, (2S,3R,4R,5S,6R)-2-(3-(4-(benzofuran-2-ylmethoxy)benzyl)phenyl)-6-(hydroxymethyl)tetrahydro-2H-pyran-3,4,5-triol]
14 nM | 444 nM | OC[C@H]1O[C@@H](c2ccc(Cl)c(Cc3ccc(OCc4cc5c(F)cccc5o4)cc3)c2)[C@H](O)[C@@H](O)[C@@H]1O [Compound I-7, (2S,3R,4R,5S,6R)-2-(4-chloro-3-(4-((4-fluorobenzofuran-2-yl)methoxy)benzyl)phenyl)-6-(hydroxymethyl)tetrahydro-2H-pyran-3,4,5-triol]
25 nM | 1440 nM | OC[C@H]1O[C@@H](c2ccc(Cl)c(Cc3ccc(OCc4cc5cc(F)ccc5o4)cc3)c2)[C@H](O)[C@@H](O)[C@@H]1O [Compound I-8, (2S,3R,4R,5S,6R)-2-(4-chloro-3-(4-((5-fluorobenzofuran-2-yl)methoxy)benzyl)phenyl)-6-(hydroxymethyl)tetrahydro-2H-pyran-3,4,5-triol]
13 nM | 151 nM | OC[C@H]1O[C@@H](c2ccc(Cl)c(Cc3ccc(OCc4cc5ccc(F)cc5o4)cc3)c2)[C@H](O)[C@@H](O)[C@@H]1O [Compound I-9, (2S,3R,4R,5S,6R)-2-(4-chloro-3-(4-((6-fluorobenzofuran-2-yl)methoxy)benzyl)phenyl)-6-(hydroxymethyl)tetrahydro-2H-pyran-3,4,5-triol]

Further lines, the compound ahead of its results:

Compound | IC50 (SGLT-2) | IC50 (SGLT-1)
Cc1ccc([C@@H]2O[C@H](CO)[C@@H](O)[C@H](O)[C@H]2O)cc1Cc1ccc(OCC2Cc3ccccc3O2)cc1 (single isomer, unassigned) [Compound I-27] | 4.3 nM | 396 nM
CC1(COc2ccc(Cc3cc([C@@H]4O[C@H](CO)[C@@H](O)[C@H](O)[C@H]4O)ccc3Cl)cc2)Cc2ccccc2O1 (single isomer, unassigned) [Compound I-106] | 18.2 nM | 700 nM
CC1(COc2ccc(Cc3cc([C@@H]4O[C@H](CO)[C@@H](O)[C@H](O)[C@H]4O)ccc3Cl)cc2)Cc2ccccc2O1 (single isomer, unassigned) [Compound I-107] | > 2000 nM | 31400 nM
Cc1ccc([C@@H]2O[C@H](CO)[C@@H](O)[C@H](O)[C@H]2O)cc1Cc1ccc(OCC2(C)Cc3ccccc3O2)cc1 (single isomer, unassigned) [Compound I-110] | 12.9 nM | 244 nM
Cc1ccc([C@@H]2O[C@H](CO)[C@@H](O)[C@H](O)[C@H]2O)cc1Cc1ccc(OCC2(C)Cc3ccccc3O2)cc1 (single isomer, unassigned) [Compound I-111] | > 2000 nM | 34400 nM
Cc1ccc([C@@H]2O[C@H](CO)[C@@H](O)[C@H](O)[C@H]2O)cc1Cc1ccc(OCC2(C)OCc3ccccc32)cc1 (single isomer, unassigned) [Compound I-113] | 18.6 nM | 655 nM
Cc1ccc([C@@H]2O[C@H](CO)[C@@H](O)[C@H](O)[C@H]2O)cc1Cc1ccc(OCC2(C)OCc3ccccc32)cc1 (single isomer, unassigned) [Compound I-114] | 5.2 nM | 997 nM
CC1(COc2ccc(Cc3cc([C@@H]4O[C@H](CO)[C@@H](O)[C@H](O)[C@H]4O)ccc3Cl)cc2)OCc2ccccc21 (single isomer, unassigned) [Compound I-115] | 12.7 nM | 725 nM
Cc1ccc([C@@H]2O[C@H](CO)[C@@H](O)[C@H](O)[C@H]2O)cc1Cc1ccc(-c2ccc(F)cc2)s1 [B, Canagliflozin, reference compound] | 4.6 nM | 287 nM
OC[C@H]1O[C@@H](c2ccc(Cl)c(Cc3ccc(OCCC4Cc5ccccc5O4)cc3)c2)[C@H](O)[C@@H](O)[C@@H]1O (stereo partly drawn) [Compound I-60, (2S,3R,4R,5S,6R)-2-(4-chloro-3-(4-(2-(2,3-dihydrobenzofuran-2-yl)ethoxy)benzyl)phenyl)-6-(hydroxymethyl)tetrahydro-2H-pyran-3,4,5-triol] | 38 nM | 
CC1(C)OC(COc2ccc(Cc3cc([C@@H]4O[C@H](CO)[C@@H](O)[C@H](O)[C@H]4O)ccc3Cl)cc2)c2ccccc21 (stereo partly drawn) [Compound I-63, (2S,3R,4R,5S,6R)-2-(4-chloro-3-(4-((3,3-dimethyl-1,3-dihydroisobenzofuran-1-yl)methoxy)benzyl)phenyl)-6-(hydroxymethyl)tetrahydro-2H-pyran-3,4,5-triol] | 5.6 nM | 

From patent US9914724B2, “C-aryl glycosid derivatives, pharmaceutical composition, preparation process and uses thereof” (SHANGHAI DE NOVO PHARMATECH CO. LTD., priority 2014, dated 2018)
